Data taken from US20200392138A1, “PESTICIDALLY ACTIVE MESOIONIC HETEROCYCLIC COMPOUNDS” (Syngenta Participations AG, priority 2017, published 2020).

Tests used:
Format in all cases: in vivo
Diabrotica balteata = Diabrotica balteata (corn root worm), maize sprouts sprayed, L2 larvae; conditions: 96 h, application rate of 200 ppm, 4 days after infestation, read-out: effect in at least one of the two categories (mortality or growth inhibition)
Protocol: Diabrotica balteata (Corn Root Worm)
Maize sprouts placed onto an agar layer in 24-well microtiter plates were treated with aqueous test solutions prepared from 10′000 ppm DMSO stock solutions by spraying. After drying, the plates were infested with L2 larvae (6 to 10 per well). The samples were assessed for mortality and growth inhibition in comparison to untreated samples 4 days after infestation.
(§1) The following compounds gave an effect of at least 80% in at least one of the two categories (mortality or growth inhibition) at an application rate of 200 ppm: […]

Spodoptera littoralis = Spodoptera littoralis (Egyptian cotton leaf worm), cotton leaf discs sprayed, L1 larvae; conditions: foliar, 72 h, application rate of 200 ppm, 3 days after infestation, read-out: control (mortality, anti-feeding effect, growth inhibition)
Protocol: Spodoptera littoralis (Egyptian Cotton Leaf Worm)
Cotton leaf discs were placed onto agar in 24-well microtiter plates and sprayed with aqueous test solutions prepared from 10′000 ppm DMSO stock solutions. After drying the leaf discs were infested with five L1 larvae. The samples were assessed for mortality, anti-feeding effect, and growth inhibition in comparison to untreated samples 3 days after infestation. Control of Spodoptera littoralis by a test sample is given when at least one of the categories mortality, anti-feedant effect, and growth inhibition is higher than the untreated sample.

Thrips tabaci = Thrips tabaci (onion thrips) feeding/contact activity, sunflower leaf discs; conditions: foliar, 144 h, application rate of 200 ppm, mixed ages, 6 days after infestation
Protocol: Thrips tabaci (Onion Thrips) Feeding/Contact Activity
Sunflower leaf discs were placed on agar in 24-well microtiter plates and sprayed with aqueous test solutions prepared from 10′000 ppm DMSO stock solutions. After drying the leaf discs were infested with a thrips population of mixed ages. The samples were assessed for mortality 6 days after infestation.

Euschistus heros = Euschistus heros (neotropical brown stink bug), soybean leaves sprayed, N2 nymphs; conditions: 120 h, application rate of 200 ppm, 5 days after infestation, read-out: effect in at least one of the two categories (mortality or growth inhibition)
Protocol: Euschistus heros (Neotropical Brown Stink Bug)
Soybean leaves on agar in 24-well microtiter plates were sprayed with aqueous test solutions prepared from 10′000 ppm DMSO stock solutions. After drying the leaves were infested with N2 nymphs. The samples were assessed for mortality and growth inhibition in comparison to untreated samples 5 days after infestation.
as §1

Myzus persicae = Myzus persicae (green peach aphid): feeding/contact activity, sunflower leaf discs; conditions: foliar, 144 h, application rate of 200 ppm, mixed ages, 6 days after infestation
Protocol: Myzus persicae (Green Peach Aphid): Feeding/Contact Activity
Sunflower leaf discs were placed onto agar in a 24-well microtiter plate and sprayed with aqueous test solutions prepared from 10′000 ppm DMSO stock solutions. After drying, the leaf discs were infested with an aphid population of mixed ages. The samples were assessed for mortality 6 days after infestation.

SMILES	percent effect (mortality or growth inhibition) at 200 ppm (Diabrotica balteata)	mortality at 200 ppm (Spodoptera littoralis)	mortality at 200 ppm (Thrips tabaci)	percent effect (mortality or growth inhibition) at 200 ppm (Euschistus heros)	mortality at 200 ppm (Myzus persicae)
Cn1ccc2n1c(=O)c(-c1cc(Cl)cc(Cl)c1)c([O-])[n+]2Cc1cnc(Cl)s1 [Compound A1, 4-[(2-chlorothiazol-5-yl)methyl]-6-(3,5-dichlorophenyl)-1-methyl-7-oxo-pyrazolo[1,5-a]pyrimidin-4-ium-5-olate]	≥ 80%	≥ 80%	–	–	–
Cn1ccc2n1c(=O)c(-c1cccc(C(F)(F)F)c1)c([O-])[n+]2CCC#N [Compound B2, 4-(2-cyanoethyl)-1-methyl-7-oxo-6-[3-(trifluoromethyl)phenyl]pyrazolo[1,5-a]pyrimidin-4-ium-5-olate]	≥ 80%	–	≥ 80%	≥ 80%	–
Cn1ccc2n1c(=O)c(-c1cc(Cl)cc(Cl)c1)c([O-])[n+]2CCn1cncn1 [Compound B21]	–	–	–	–	≥ 80%
